Values of other authors, collected in patent US20060089343A1, “Superoxide dismutase mimics for the treatment of ocular disorders and diseases” (ALCON, INC., priority 2002, published 2006).

Assays:
[1] = albino rats
[2] = diabetogenic T-cell clone
IL-6 and MIP-2 = conditions: administration after induction of cerebral ischemia
[3] = given either before or after induction of cerebral ischemia
[4] = diabetic rats

In the case of `CC1(C)CC(O)CC(C)(C)N1[O]` [4-hydroxy-2,2,6,6-tetramethylpiperidine-1-oxyl], the light-induced retinal damage [1] is listed as “inhibited light-induced retinal damage”.

For `CCN1C=CC=C/C1=C1/C2=NC(=C(c3cccc[n+]3CC)C3=NC(=C(c4cccc[n+]4CC)c4ccc([n-]4)C(c4cccc[n+]4CC)=C4C=CC1=N4)C=C3)C=C2.[Cl-].[Cl-].[Cl-].[Cl-].[Cl-].[Mn+3]` [AEOL10113], the onset of diabetes [2] is given as “delay the onset of diabetes”.

In the case of `CCn1cc[n+](CC)c1C1=C2C=CC3=[N+]2[Mn]24[n]5c1ccc5C(c1n(CC)cc[n+]1CC)=C1C=CC(=[N+]12)C(c1n(CC)cc[n+]1CC)=c1ccc([n]14)=C3c1n(CC)cc[n+]1CC` [Compound 1], the “expression of pro-inflammatory proteins, such as IL-6 and MIP-2” value (IL-6 and MIP-2) is listed as “attenuation of the increased expression”.

For `CC[n+]1ccccc1C1=C2C=CC3=[N+]2[Mn]24[n]5c1ccc5C(c1cccc[n+]1CC)=C1C=CC(=[N+]12)C(c1cccc[n+]1CC)=c1ccc([n]14)=C3c1cccc[n+]1CC` [Compound 2], the infarct volume [3] is given as “reduces infarct volume”.

In the case of `[Cl-].[Cl-].[Mn+2].c1cc2nc(c1)CN[C@@H]1CCCC[C@H]1NCCN[C@@H]1CCCC[C@H]1NC2` [Compound M40403], the “vascular and neural dysfunction” value [4] is listed as “prevented vascular and neural dysfunction”.
